According to patent US20090118135A1, “METHODS AND COMPOUNDS FOR REGULATING APOPTOSIS” (The Burnham Institute, priority 2007, published 2009):
Read-outs that look alike come from different tables or passages of the source.

Assays:
GST-Bcl-B [1] = molecular target: T1, GST-Bcl-B (Homo sapiens, UniProt Q9HD36); assay: Bcl-B/FITC-TR3-r8 fluorescence polarization competition (displacement) assay, HTS and dose-response; conditions: for Bcl-B H Coefficient: Hill coefficient of Bcl-B dose-response curve
T1 sequence (Q9HD36 1-182 limits assumed): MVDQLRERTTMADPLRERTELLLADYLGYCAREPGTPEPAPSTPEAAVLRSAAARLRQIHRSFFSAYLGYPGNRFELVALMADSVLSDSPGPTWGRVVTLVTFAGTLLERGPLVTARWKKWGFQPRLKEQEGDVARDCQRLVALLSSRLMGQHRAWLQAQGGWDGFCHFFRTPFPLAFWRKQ

GST-Bcl-B [2] = molecular target: T1, GST-Bcl-B; assay: biochemical
[3] = Table 8, NCI Structural library, Binding Assay, FP, Concentration 0.02 uM
[4] = read-out: Result Value (Result Type % Inhibition), BCL-b/TR3, Table 8, NCI Structural library, Binding Assay, FP, Concentration 0.02 uM
[5] = read-out: Result Value (Result Type % Inhibition), BCL-b/TR3
[6] = Table 7, NCI Mechanistic library, Binding Assay, FP, Concentration 0.02 uM
[7] = read-out: Result Value (Result Type % Inhibition), BCL-b/TR3, Table 7, NCI Mechanistic library, Binding Assay, FP, Concentration 0.02 uM
[8] = LOPAC1280 library primary screen
[9] = LOPAC1280 library, fluorescence intensity normalized to plate negative controls
[10] = read-out: Result Value (% Inhibition)

In the case of `COc1cc(C2Nc3ccc4ccccc4c3C3=C2C(=O)CC(C)(C)C3)c(Br)cc1O` (stereo not shown) [Compound 5660965], the “Bcl-B H Coefficient” value (GST-Bcl-B [1]) is reported as 1.507 and the IC50 (GST-Bcl-B [2]) is reported as 13.1 µM.

With `CC(=O)c1cc(C#N)c(SCC(=O)c2ccc(O)c(O)c2)nc1C` [Compound 6033363] the “Bcl-B H Coefficient” value (GST-Bcl-B [1]) was 2.08 and the IC50 (GST-Bcl-B [2]) was 11 µM.

In the case of `COc1ccccc1NC(=O)C1=C(C)NC(SCC(=O)c2ccc(Br)cc2)=C(C#N)C1c1ccco1` (stereo not shown) [Compound 5570547], the “Bcl-B H Coefficient” value (GST-Bcl-B [1]) is reported as 18.57 and the IC50 (GST-Bcl-B [2]) is reported as 6.24 µM.

`O=C(O)C1Nc2c(C(=O)N3CCCC3)cccc2C2C=CCC12` (stereo not shown) [Compound 5947449] was tested, and the “Bcl-B H Coefficient” value (GST-Bcl-B [1]) was 1.761 and the IC50 (GST-Bcl-B [2]) was 4.95 µM.

With `O=[N+]([O-])c1cc(Cc2cc([N+](=O)[O-])c3cccnc3c2O)c(O)c2ncccc12` [Compound 130798] the “F Ratio” value (GST-Bcl-B [1]; [3]) was 0.1969, the “Is Hit” value (GST-Bcl-B [1]; [3]) was “Yes” and the inhibition at 0.02 µM (GST-Bcl-B [1]; [4]) was 115%.

In the case of `O=[N+]([O-])c1ccc(S(=O)(=O)Cc2ccccc2)c2nonc12` [Compound 228148], the “F Ratio” value (GST-Bcl-B [1]; [3]) is reported as 1.1364, the “Is Hit” value (GST-Bcl-B [1]; [3]) is reported as “Yes” and the inhibition at 0.02 µM (GST-Bcl-B [1]; [5]) is reported as 73.4%.

With `CN(C)c1ccc(/C=c2\c3n(c4ccccc24)N(C)C(c2ccc(Cl)cc2)C=3)cc1.O=S(=O)(O)C(F)(F)F` (stereo not shown) [Compound 699479] the “F Ratio” value (GST-Bcl-B [1]; [6]) was 0.1793, the “Is Hit” value (GST-Bcl-B [1]; [6]) was “Yes” and the inhibition at 0.02 µM (GST-Bcl-B [1]; [5]) was 60.6%.

With `NC(=O)OCC1=C(COC(N)=O)C(=O)c2c(O)ccc(O)c2C1=O` [Compound 224124] the “F Ratio” value (GST-Bcl-B [1]; [6]) was 1.1456, the “Is Hit” value (GST-Bcl-B [1]; [6]) was “Yes” and the inhibition at 0.02 µM (GST-Bcl-B [1]; [5]) was 145%.

With `CN1CC=C(Nc2ccc(C(=O)Nc3ccc(Nc4ccncc4)cc3)c([N+](=O)[O-])c2)c2cc([N+](=O)[O-])ccc21` [Compound 218439] the “F Ratio” value (GST-Bcl-B [1]; [6]) was 0.07485, the “Is Hit” value (GST-Bcl-B [1]; [6]) was “Yes” and the inhibition at 0.02 µM (GST-Bcl-B [1]; [7]) was 106%.

`COc1cccc2c1C(=N)c1c(O)c3c(c(O)c1C2=O)C[C@@](O)(C(C)=O)C[C@@H]3OC1CC(N)C(O)C(C)O1` (stereo partly shown) [Compound 254681] was tested, and the “F Ratio” value (GST-Bcl-B [1]; [3]) was 0.5232, the “Is Hit” value (GST-Bcl-B [1]; [3]) was “Yes” and the inhibition at 0.02 µM (GST-Bcl-B [1]; [5]) was 138%.

`N#C/C(=C\c1ccc(O)c(O)c1)C(=O)c1ccc(O)c(O)c1` [T 7822] was tested, and the “Is Hit” value (GST-Bcl-B [1]; [8]) was “Yes”, the “F Ratio” value (GST-Bcl-B [1]; [9]) was 0.1036 and the inhibition at 0.02 µM (GST-Bcl-B [1]; [10]) was 61.7%.

With `CN(N=O)c1cc(O)ccc1O` [D 8065] the “Is Hit” value (GST-Bcl-B [1]; [8]) was “Yes”, the “F Ratio” value (GST-Bcl-B [1]; [9]) was 0.1152 and the inhibition at 0.02 µM (GST-Bcl-B [1]; read-out: Result Value (% Inhibition), LOPAC1280 (Sigma-Aldrich) library, BCL-b/TR3 Binding Assay, FP, Concentration 0.02 uM, % competition) was 95.3%.

`O=C(O)C1CCCCC1c1c2ccc(=O)c(O)c-2oc2c(O)c(O)ccc12` (stereo not shown) [Compound 119910] was tested, and the “F Ratio” value (GST-Bcl-B [1]; [3]) was 0.1582, the “Is Hit” value (GST-Bcl-B [1]; [3]) was “Yes” and the inhibition at 0.02 µM (GST-Bcl-B [1]; [5]) was 119%.

In the case of `Nc1c(S(=O)(=O)O)cc(Nc2ccc(Nc3nc(Cl)nc(Nc4ccc(S(=O)(=O)O)cc4)n3)c(S(=O)(=O)O)c2)c2c1C(=O)c1ccccc1C2=O` [Compound R-115], the “Is Hit” value (GST-Bcl-B [1]; [8]) is reported as “Yes”, the “F Ratio” value (GST-Bcl-B [1]; [9]) is reported as 0.1652 and the inhibition at 0.02 µM (GST-Bcl-B [1]; [10]) is reported as 80.8%.

For `CN(C)C1C(O)=C(C(N)=O)C(=O)C2(O)C(O)=C3C(=O)c4c(O)cccc4C(C)(O)C3CC12.CS(=O)(=O)O` (stereo not shown) [Compound 69343], the “F Ratio” value (GST-Bcl-B [1]; [3]) was 0.3746, the “Is Hit” value (GST-Bcl-B [1]; [3]) was “Yes” and the inhibition at 0.02 µM (GST-Bcl-B [1]; [5]) was 93.4%.

`CCN1C=C/C(=C\C=C\c2cc[n+](CC)c3ccccc23)C2C=CC=CC21` (stereo not shown) [Compound 34391] was tested, and the “F Ratio” value (GST-Bcl-B [1]; [6]) was 0.2486, the “Is Hit” value (GST-Bcl-B [1]; [6]) was “Yes” and the inhibition at 0.02 µM (GST-Bcl-B [1]; [5]) was 104%.

In the case of `CCc1c(O)c2c(c(O)c1C(C)=O)C(=O)c1c(cc(O)c(C(=O)O)c1C(=O)O)C2=O` [Compound 170005], the “F Ratio” value (GST-Bcl-B [1]; [3]) is reported as 0.1552, the “Is Hit” value (GST-Bcl-B [1]; [3]) is reported as “Yes” and the inhibition at 0.02 µM (GST-Bcl-B [1]; [5]) is reported as 123%.

In the case of `Oc1c(C(O)(c2ccccc2)c2ccc3ccccc3c2O)ccc2ccccc12` [Compound 13984], the “F Ratio” value (GST-Bcl-B [1]; [3]) is reported as 0.7704, the “Is Hit” value (GST-Bcl-B [1]; [3]) is reported as “Yes” and the inhibition at 0.02 µM (GST-Bcl-B [1]; [5]) is reported as 87%.

In the case of `CN1CCN(c2ccc3nc(-c4ccc5[nH]c(-c6ccc(O)cc6)nc5c4)[nH]c3c2)CC1` [Compound 322921], the inhibition at 0.02 µM (GST-Bcl-B [1]; [4]) is reported as 71.6%.

For `O=C1C(Br)=C(N2CCN(CCOCCO)CC2)C(=O)c2c(O)ccc(O)c21` [Compound 659999], the “Is Hit” value (GST-Bcl-B [1]; [6]) was “Yes”.

For `CC(=O)O.CCN(CC)CC[n+]1ccc2c(C)c3[nH]c4ccc(O)cc4c3c(C)c2c1` [Compound 311152], the “F Ratio” value (GST-Bcl-B [1]; [3]) was 0.7711, the “Is Hit” value (GST-Bcl-B [1]; [3]) was “Yes” and the inhibition at 0.02 µM (GST-Bcl-B [1]; [5]) was 128%.

With `COc1cc(-c2[o+]c3cc(O)cc(O)c3cc2O)cc(O)c1O.O=C(O)c1ccccc1` [Compound 114885] the “F Ratio” value (GST-Bcl-B [1]; [3]) was 0.08249, the “Is Hit” value (GST-Bcl-B [1]; [3]) was “Yes” and the inhibition at 0.02 µM (GST-Bcl-B [1]; [4]) was 108%.

`CN(C)CS/C(N)=N\C(O)C(Cl)(Cl)Cl` (stereo not shown) [Compound 14555] was tested, and the “F Ratio” value (GST-Bcl-B [1]; [3]) was 0.6767, the “Is Hit” value (GST-Bcl-B [1]; [3]) was “Yes” and the inhibition at 0.02 µM (GST-Bcl-B [1]; [4]) was 59.9%.

`Cc1cc2c(C(C)C)c(O)c(O)c(C=O)c2c(O)c1-c1c(C)cc2c(C(C)C)c(O)c(O)c(C=O)c2c1O` [Compound 56817] was tested, and the “F Ratio” value (GST-Bcl-B [1]; [6]) was 0.1472, the “Is Hit” value (GST-Bcl-B [1]; [6]) was “Yes” and the inhibition at 0.02 µM (GST-Bcl-B [1]; [7]) was 57.3%.

In the case of `Nc1ccc2c(c1)CN1C(=O)c3ccccc3C1=N2` [Compound 320846], the “F Ratio” value (GST-Bcl-B [1]; [6]) is reported as 1.4904, the “Is Hit” value (GST-Bcl-B [1]; [6]) is reported as “Yes” and the inhibition at 0.02 µM (GST-Bcl-B [1]; [7]) is reported as 60.7%.

In the case of `CN(C)CCCNc1cc(O)c2c(c1O)C(=O)c1ccccc1C2=O` [Compound 339585], the “F Ratio” value (GST-Bcl-B [1]; [3]) is reported as 0.1416, the “Is Hit” value (GST-Bcl-B [1]; [3]) is reported as “Yes” and the inhibition at 0.02 µM (GST-Bcl-B [1]; [5]) is reported as 110%.

`CC(=O)O.Cc1c2cc[n+](CCN3CCCCC3)cc2c(C)c2c1[nH]c1ccc(O)cc12` [Compound 311153] was tested, and the “F Ratio” value (GST-Bcl-B [1]; [6]) was 0.275, the “Is Hit” value (GST-Bcl-B [1]; [6]) was “Yes” and the “F Ratio” value (GST-Bcl-B [1]; [3]) was 0.3973. The “Is Hit” value (GST-Bcl-B [1]; [3]) was “Yes”, the inhibition at 0.02 µM (GST-Bcl-B [1]; [7]) was 120% and the inhibition at 0.02 µM (GST-Bcl-B [1]; [4]) was 128%.
